Experimental data published in patent US10844038B2, “1,2-dithiolane compounds useful in neuroprotection, autoimmune and cancer diseases and conditions” (SABILA BIOSCIENCES LLC, priority 2016, dated 2020).

Assays:
ARAF = ARAF (Homo sapiens (Human), UniProt P10398); experiment: Radioisotope filter binding assay; format: biochemical; settings: read-out: IC50 Activity Levels Against MAPK Pathway Kinases: ARAF
Method: (§1) 3. Radioisotope Filter Binding Assay:
(§2) In this assay format, it directly detects the true product without the use of modified substrates or coupling enzymes (Uitdehaag, J. C., et al. Br. J. Pharmacol. 2012, 166, 858-876; Hastie, C. J., et al. Nat. Protoc. 2006, 1, 968-971) according to equation 1. Substrate+[γ−^33P]−ATP→^33P-Substrate+ADP eq 1
(§3) The protocol calls for test compound of the invention to be incubated with kinase, substrate, cofactors, and radio-isotope-labeled ATP (^33P-gamma-ATP). The reaction mixtures are then spotted onto filter papers which bind the radioisotope labeled catalytic product. Unreacted phosphate is removed via washing. The reagents used include base reaction buffer; 20 mM Hepes (pH 7.5), 10 mM MgCl2, 1 mM EGTA, 0.02% Brij35, 0.02 mg/ml BSA, 0.1 mM Na3VO4, 2 mM DTT, 1% DMSO. The reaction procedure include the following steps: (1) prepare indicated substrate in freshly prepared base reaction buffer, (2) deliver any required cofactors to the substrate solution above, (3) deliver indicated kinase into the substrate solution and gently mix, (4) deliver compounds in DMSO into the kinase reaction mixture by Acoustic technology (Echo550; nanoliter range), incubate for 20 minutes at room temperature, (5) deliver ^33P-ATP (specific activity 10 μCi/μL) into the reaction mixture to initiate the reaction, (6) incubate kinase reaction for 2 hours at room temperature, (7) reactions are spotted onto P81 ion exchange paper, (8) detect kinase activity by filter-binding method.

FYN-Y531F = FYN-Y531F (Homo sapiens (Human), UniProt P06241, Y531F); experiment: Radioisotope filter binding assay; format: biochemical; settings: read-out: IC50 Activity Levels Against FYN Mutant: FYN-Y531F
FYN-Y531F, sequence (P06241 whole entry Y531F): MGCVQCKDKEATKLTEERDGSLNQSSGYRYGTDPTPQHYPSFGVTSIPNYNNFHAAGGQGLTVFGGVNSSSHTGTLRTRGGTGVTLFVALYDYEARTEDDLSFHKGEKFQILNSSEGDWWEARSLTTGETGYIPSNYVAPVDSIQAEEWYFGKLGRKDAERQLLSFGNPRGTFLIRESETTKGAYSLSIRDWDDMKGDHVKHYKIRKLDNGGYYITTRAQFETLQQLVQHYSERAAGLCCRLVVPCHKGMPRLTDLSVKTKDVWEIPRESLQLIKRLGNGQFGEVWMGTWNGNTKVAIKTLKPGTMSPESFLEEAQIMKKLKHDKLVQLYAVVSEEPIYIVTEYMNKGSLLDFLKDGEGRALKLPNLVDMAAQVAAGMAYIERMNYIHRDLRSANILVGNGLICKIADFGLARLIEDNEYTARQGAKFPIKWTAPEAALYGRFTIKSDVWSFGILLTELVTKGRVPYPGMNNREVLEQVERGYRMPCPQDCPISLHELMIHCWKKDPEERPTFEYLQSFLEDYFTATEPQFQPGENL
Method: as §1, §2, §3

HCK = HCK (Homo sapiens (Human), UniProt P08631); experiment: Radioisotope filter binding assay; format: biochemical; settings: read-out: IC50 Activity Levels Against SRC Family Kinases: HCK
HCK, sequence (P08631 whole entry): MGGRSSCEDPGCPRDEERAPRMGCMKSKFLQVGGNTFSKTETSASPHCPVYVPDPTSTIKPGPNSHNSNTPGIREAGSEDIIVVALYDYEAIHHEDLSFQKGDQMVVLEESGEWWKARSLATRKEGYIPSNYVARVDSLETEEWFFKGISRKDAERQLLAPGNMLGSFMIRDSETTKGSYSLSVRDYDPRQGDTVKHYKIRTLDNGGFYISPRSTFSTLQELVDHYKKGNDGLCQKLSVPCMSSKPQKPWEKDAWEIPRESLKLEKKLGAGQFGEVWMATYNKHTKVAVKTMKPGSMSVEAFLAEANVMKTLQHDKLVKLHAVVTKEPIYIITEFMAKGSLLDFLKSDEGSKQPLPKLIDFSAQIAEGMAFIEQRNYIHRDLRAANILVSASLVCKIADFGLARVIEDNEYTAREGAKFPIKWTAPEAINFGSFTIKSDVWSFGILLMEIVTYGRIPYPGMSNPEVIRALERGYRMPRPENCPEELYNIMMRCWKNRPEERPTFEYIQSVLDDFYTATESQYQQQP
Method: as §1, §2, §3

LCK = LCK (Homo sapiens (Human), UniProt P06239); experiment: Radioisotope filter binding assay; format: biochemical; settings: read-out: IC50 Activity Levels Against SRC Family Kinases: LCK
LCK, sequence (P06239 whole entry): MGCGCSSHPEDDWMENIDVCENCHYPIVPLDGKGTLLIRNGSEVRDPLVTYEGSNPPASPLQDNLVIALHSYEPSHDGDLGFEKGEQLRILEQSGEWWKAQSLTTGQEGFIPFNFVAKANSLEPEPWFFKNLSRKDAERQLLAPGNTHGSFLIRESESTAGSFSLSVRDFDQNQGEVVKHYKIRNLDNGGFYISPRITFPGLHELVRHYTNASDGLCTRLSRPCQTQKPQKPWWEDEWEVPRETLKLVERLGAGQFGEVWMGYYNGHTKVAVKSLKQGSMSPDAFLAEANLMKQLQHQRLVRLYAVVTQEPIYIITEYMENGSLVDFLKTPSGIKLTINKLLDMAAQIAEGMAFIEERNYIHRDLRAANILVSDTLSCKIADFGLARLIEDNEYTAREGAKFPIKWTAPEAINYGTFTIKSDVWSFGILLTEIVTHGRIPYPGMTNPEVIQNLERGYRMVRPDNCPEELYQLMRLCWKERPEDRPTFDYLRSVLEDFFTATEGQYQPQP
Method: as §1, §2, §3

SRC = SRC (Homo sapiens (Human), UniProt P12931); experiment: Radioisotope filter binding assay; format: biochemical; settings: read-out: IC50 Activity Levels Against SRC Family Kinases: SRC
Method: as §1, §2, §3

BTK = BTK (Homo sapiens (Human), UniProt Q06187); experiment: Radioisotope filter binding assay; format: biochemical; settings: read-out: IC50 Activity Levels Against Representative TEC Family Kinases: BTK
Method: as §1, §2, §3

CRAP = CRAP (Homo sapiens (Human), UniProt P04049); experiment: Radioisotope filter binding assay; format: biochemical; settings: read-out: IC50 Activity Levels Against MAPK Pathway Kinases: CRAP
CRAP, sequence (P04049 whole entry): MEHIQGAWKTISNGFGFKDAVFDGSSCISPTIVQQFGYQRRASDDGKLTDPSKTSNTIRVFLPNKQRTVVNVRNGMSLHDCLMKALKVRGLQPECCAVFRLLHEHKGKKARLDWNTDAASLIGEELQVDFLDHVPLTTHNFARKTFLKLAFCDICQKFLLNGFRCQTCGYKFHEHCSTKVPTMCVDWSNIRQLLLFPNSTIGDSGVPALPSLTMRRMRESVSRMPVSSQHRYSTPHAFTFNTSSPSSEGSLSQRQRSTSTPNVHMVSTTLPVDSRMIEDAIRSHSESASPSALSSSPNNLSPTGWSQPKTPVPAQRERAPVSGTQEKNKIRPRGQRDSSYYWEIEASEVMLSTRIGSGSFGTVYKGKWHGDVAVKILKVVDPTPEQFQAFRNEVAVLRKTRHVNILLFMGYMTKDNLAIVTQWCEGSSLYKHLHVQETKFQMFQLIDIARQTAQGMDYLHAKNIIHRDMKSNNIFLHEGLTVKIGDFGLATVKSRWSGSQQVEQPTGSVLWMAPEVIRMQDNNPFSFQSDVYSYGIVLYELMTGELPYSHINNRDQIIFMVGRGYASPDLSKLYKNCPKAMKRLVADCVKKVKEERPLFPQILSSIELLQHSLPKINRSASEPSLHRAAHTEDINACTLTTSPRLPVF
Method: as §1, §2, §3

YES1 [1] = target: T1, YES1 (Homo sapiens (Human), UniProt P07947); experiment: Radioisotope filter binding assay; format: biochemical; settings: read-out: IC50 Activity Levels Against SRC Family Kinases: YES1
T1 sequence (P07947 whole entry): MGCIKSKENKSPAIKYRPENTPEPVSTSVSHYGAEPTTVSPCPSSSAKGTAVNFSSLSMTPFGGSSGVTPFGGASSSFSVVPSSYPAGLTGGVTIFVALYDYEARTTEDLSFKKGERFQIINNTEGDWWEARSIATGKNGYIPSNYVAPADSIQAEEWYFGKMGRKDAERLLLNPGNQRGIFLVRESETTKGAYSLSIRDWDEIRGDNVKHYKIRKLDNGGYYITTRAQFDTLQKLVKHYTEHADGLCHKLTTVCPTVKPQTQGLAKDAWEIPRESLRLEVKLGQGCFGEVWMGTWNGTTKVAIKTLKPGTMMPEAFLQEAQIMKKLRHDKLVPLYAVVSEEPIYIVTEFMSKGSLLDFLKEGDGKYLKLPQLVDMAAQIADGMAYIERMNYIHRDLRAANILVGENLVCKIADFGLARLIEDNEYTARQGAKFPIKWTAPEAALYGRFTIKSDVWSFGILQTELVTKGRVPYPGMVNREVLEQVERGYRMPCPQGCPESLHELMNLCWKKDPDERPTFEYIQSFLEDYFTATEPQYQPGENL
Method: as §1, §2, §3

LYN = LYN (Homo sapiens (Human), UniProt P07948); experiment: Radioisotope filter binding assay; format: biochemical; settings: read-out: IC50 Activity Levels Against SRC Family Kinases: LYN
Method: as §1, §2, §3

BRK = BRK (Homo sapiens (Human), UniProt Q13882); experiment: Radioisotope filter binding assay; format: biochemical; settings: read-out: IC50 Activity Levels Against FRK Family Kinases: BRK
BRK, sequence (Q13882 whole entry): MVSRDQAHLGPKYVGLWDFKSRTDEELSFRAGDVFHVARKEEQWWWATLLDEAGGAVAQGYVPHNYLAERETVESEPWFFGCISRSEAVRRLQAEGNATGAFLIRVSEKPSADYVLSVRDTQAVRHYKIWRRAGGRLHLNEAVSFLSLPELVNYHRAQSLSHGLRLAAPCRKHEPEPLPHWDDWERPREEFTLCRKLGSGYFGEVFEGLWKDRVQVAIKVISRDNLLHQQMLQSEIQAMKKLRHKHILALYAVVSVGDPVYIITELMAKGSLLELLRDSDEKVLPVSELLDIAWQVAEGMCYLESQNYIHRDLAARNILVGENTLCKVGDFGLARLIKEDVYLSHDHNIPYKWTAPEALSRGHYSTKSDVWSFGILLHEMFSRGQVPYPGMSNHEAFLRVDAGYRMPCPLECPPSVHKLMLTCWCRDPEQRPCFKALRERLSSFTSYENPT
Method: as §1, §2, §3

BLK = BLK (Homo sapiens (Human), UniProt P51451); experiment: Radioisotope filter binding assay; format: biochemical; settings: read-out: IC50 Activity Levels Against SRC Family Kinases: BLK
BLK, sequence (P51451 whole entry): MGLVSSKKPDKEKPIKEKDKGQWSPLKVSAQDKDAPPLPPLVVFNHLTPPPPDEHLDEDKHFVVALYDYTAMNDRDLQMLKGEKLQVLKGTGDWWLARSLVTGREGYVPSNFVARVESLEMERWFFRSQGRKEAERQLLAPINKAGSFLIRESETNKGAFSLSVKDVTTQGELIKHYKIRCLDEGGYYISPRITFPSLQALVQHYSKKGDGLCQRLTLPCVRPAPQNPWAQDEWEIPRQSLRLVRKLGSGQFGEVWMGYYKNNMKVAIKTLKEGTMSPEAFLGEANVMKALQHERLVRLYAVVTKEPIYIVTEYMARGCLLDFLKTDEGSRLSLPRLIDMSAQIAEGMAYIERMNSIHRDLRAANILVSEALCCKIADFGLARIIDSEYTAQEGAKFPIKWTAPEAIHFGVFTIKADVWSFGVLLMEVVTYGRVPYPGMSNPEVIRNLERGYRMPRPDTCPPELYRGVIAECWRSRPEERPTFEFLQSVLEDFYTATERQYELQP
Method: as §1, §2, §3

FYN = FYN (Homo sapiens (Human), UniProt P06241); experiment: Radioisotope filter binding assay; format: biochemical; settings: read-out: IC50 Activity Levels Against SRC Family Kinases: FYN
Method: as §1, §2, §3

FLT3 = FLT3 (Homo sapiens (Human), UniProt P36888); experiment: Radioisotope filter binding assay; format: biochemical; settings: read-out: IC50 Activity Levels Against Type III NRT Kinases: FLT3
FLT3, sequence (P36888 27-993): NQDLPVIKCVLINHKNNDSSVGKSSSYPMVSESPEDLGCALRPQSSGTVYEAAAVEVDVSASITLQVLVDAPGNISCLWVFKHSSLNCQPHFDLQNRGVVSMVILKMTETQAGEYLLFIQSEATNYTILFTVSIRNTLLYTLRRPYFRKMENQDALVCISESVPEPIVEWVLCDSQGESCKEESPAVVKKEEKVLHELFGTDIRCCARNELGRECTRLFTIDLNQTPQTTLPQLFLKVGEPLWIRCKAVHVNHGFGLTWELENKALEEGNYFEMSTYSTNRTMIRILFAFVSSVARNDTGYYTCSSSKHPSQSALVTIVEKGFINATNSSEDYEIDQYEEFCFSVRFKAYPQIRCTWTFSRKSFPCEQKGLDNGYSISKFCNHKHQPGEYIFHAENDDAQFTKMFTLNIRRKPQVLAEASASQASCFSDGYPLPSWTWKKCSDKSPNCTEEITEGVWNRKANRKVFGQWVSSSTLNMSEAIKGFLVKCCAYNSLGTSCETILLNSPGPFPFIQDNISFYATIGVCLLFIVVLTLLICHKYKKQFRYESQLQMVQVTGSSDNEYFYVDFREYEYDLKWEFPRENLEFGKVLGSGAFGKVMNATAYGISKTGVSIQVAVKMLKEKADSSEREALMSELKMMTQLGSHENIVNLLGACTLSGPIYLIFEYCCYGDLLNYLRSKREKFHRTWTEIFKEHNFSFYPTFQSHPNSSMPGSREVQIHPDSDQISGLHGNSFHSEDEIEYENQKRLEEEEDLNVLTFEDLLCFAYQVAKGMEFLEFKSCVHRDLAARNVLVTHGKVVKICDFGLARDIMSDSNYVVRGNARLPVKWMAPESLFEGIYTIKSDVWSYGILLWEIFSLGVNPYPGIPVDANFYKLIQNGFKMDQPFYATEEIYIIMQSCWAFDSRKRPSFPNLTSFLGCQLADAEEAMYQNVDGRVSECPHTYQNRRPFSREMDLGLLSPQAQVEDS
Method: as §1, §2, §3

FLT3-ITD = experiment: Radioisotope filter binding assay; format: biochemical; settings: read-out: IC50 Activity Levels Against Type III NRT Kinases: FLT3-ITD
Method: as §1, §2, §3

FGR = FGR (Homo sapiens (Human), UniProt P09769); experiment: Radioisotope filter binding assay; format: biochemical; settings: read-out: IC50 Activity Levels Against SRC Family Kinases: FGR
Method: as §1, §2, §3

[2] = target: Bruton Tyrosine Kinase (BTK) (Homo sapiens (Human), UniProt Q06187); experiment: Rabbit reticulocyte lysate assay (KinaseSeeker competition binding); settings: read-out: IC50 Activity Levels Against Bruton Tyrosine Kinase: BTK
Method: 1. Rabbit Reticulocyte Lysate Assay Design:
KinaseSeeker is a homogeneous competition binding assay where the displacement of an active site dependent probe by an inhibitor is measured by a change in luminescence signal. Luminescence readout translates into a highly sensitive and robust assay with low background and minimal interference from test compounds.
10 mM stock solutions of test compounds were serially diluted in DMSO to make assay stocks. Prior to initiating IC50 determinations, the test compounds were evaluated for false positive against split-luciferase.
Each test compound was screened in duplicate against target kinase at 7 different concentrations. For kinase assays, Cfluc-kinase was translated along with Fos-Nfluc using a cell-free system (rabbit reticulocyte lysate) at 30° C. for 90 min. 24 uL aliquot of this lysate containing either 1 uL of DMSO (for no-inhibitor control) or compound solution in DMSO was incubated for 30 minutes at room temperature followed by 1 hour in presence of a kinase specific probe. 80 uL of luciferin assay reagent was added to each solution and luminescence was immediately measured on a luminometer.
The % Inhibition and % Activity Remaining was calculated using the following equation: % Inhibition=[(ALUControl−ALUSample)/ALUControl]×100 % Activity Remaining=100−% Inhibition
The % Activity was plotted against compound concentration and the IC50 was determined for each compound using a 7-point curve (Jester, B. W.; et. al. J. Am. Chem. Soc. 2010, 132, 11727-11735. Jester, B. W., et. al. J. Med. Chem. 2012, 55, 1526-1537). Biological activity of representative compounds of the disclosure are described in Table 5.

YES1 [3] = target: T1, YES1; experiment: Kinase binding assay CaPBA; settings: read-out: IC50 Activity Levels Against FYN isoforms, YES1 and MEK5: YES1
Excerpt: 4. Kinase Binding Assay CaPBA:

Structure (SMILES) | IC50 (ARAF) [nM] | IC50 (FYN-Y531F) [nM] | IC50 (HCK) [nM] | IC50 (LCK) [nM] | IC50 (SRC) [nM] | IC50 (BTK) [nM] | IC50 (CRAP) [nM] | IC50 (YES1 [1]) [nM] | IC50 (LYN) [nM] | IC50 (BRK) [nM] | IC50 (BLK) [nM] | IC50 (FYN) [nM] | IC50 (FLT3) [nM] | IC50 (FLT3-ITD) [nM] | IC50 (FGR) [nM] | IC50 [2] [nM] | IC50 (YES1 [3]) [nM]
Nc1ncnc2c1c(-c1ccc(Oc3ccccc3)cc1)nn2C[C@@H]1SSC[C@@H]1O [46 A.] | 1000 to 10000 | 5 to 99 | 5 to 99 | 5 to 99 | 100 to 999 | 5 to 99 | 1000 to 10000 | < 5 | 100 to 999 | 5 to 99 | 5 to 99 | 5 to 99 | 5 to 99 | 100 to 999 | 5 to 99 | 1000 to 10000 | –
Nc1ncnc2c1c(-c1ccc(Oc3ccccc3)cc1)nn2C[C@H]1SSC[C@@H]1O [43 B.] | – | 100 to 999 | < 5 | < 5 | 5 to 99 | 5 to 99 | – | < 5 | 5 to 99 | 5 to 99 | 5 to 99 | < 5 | 100 to 999 | 100 to 999 | < 5 | 100 to 999 | < 5
Nc1ncnc2c1c(-c1ccc(Oc3ccccc3)cc1)nn2C[C@@H]1SSC[C@H]1O [43 A.] | 100 to 999 | 5 to 99 | < 5 | < 5 | 100 to 999 | 5 to 99 | 1000 to 10000 | < 5 | 5 to 99 | 5 to 99 | < 5 | < 5 | 5 to 99 | 100 to 999 | < 5 | 1000 to 10000 | < 5
Nc1ncnc2c1c(-c1ccc(Oc3ccccc3)cc1)nn2C[C@H]1SSC[C@H]1O [46 B.] | 100 to 999 | 5 to 99 | 5 to 99 | < 5 | 5 to 99 | 5 to 99 | 1000 to 10000 | < 5 | 5 to 99 | 5 to 99 | < 5 | < 5 | 5 to 99 | 100 to 999 | < 5 | 1000 to 10000 | < 5
